No end group written: not given here.
What was measured:
[1] = system: patient, a child with symptoms of autism; test: Intravenous secretin infusion in a child with symptoms of autism (Example 1); format: in vivo, human
Protocol: The present invention will be better understood from the following examples which are given by way of illustration and not by way of limitation. The patient, the same in both examples, is a child with symptoms of autism.
When the patient was […], the secretin was administered by way of an infusion as part of an upper gastrointestinal endoscopy. The secretin was used in this diagnostic procedure at the request of the patient's parents, one of which is an inventor of the present invention. The secretin used in this procedure is known as Secretin-Ferring available from Ferring Laboratories, Inc., Suffern, N.Y. (See Appendix A). The secretin was dissolved in a […] solution of sodium chloride and administered in a dosage of 2 clinical units (CU) per kilogram (kg) body weight by intravenous injection over one minute. (I.E. 30 IU IV for approximately 15 kilograms of body weight.)
The diagnostic tests performed on the patient during this procedure also indicated gastric inflammation. […] The following Table I summarizes the improvements observed in the patient within 3 weeks after the infusion of secretin.
Biomedical changes were also measured in the patient.
At the request of the patient's parents, a second infusion of secretin was performed about 9 months after the first infusion, and a third infusion of secretin was performed about three months after the second infusion.

[2] = system: patient, a child with symptoms of autism; test: Daily transdermal secretin with DMSO in the same patient (Example 2); format: in vivo, human; conditions: about 15 CU daily
Protocol: At the time of this treatment, the patient was […]. Secretin was administered transdermally using pharmaceutical grade dimethyl sulfoxide (DMSO) (generally 99.9% pure) available from Clinic Service Co., Box 2512, Hemet Calif. 92543. The secretin (Secretin-Ferring) was administered daily in a dosage of about 75 CU over a five day period (i.e., about 15 CU daily) For each treatment, about 4 drops of DMSO were placed onto the skin of the patient, about 15 CU of the crystalline secretin was placed onto the DMSO, and the composition was rubbed into the skin.

abnormal opioid peptides = conditions: autistic children responding to casein free and gluten free diet, after the secretin infusion; cited from earlier work

secretin (HSDGTFTSELSRLRDSARLQRLLQGLV-NH2; ends and bridges not checked; UniProt P63298 33-59, looked up) [polypeptide hormone secreted by the mucosa of the duodenum and upper jejunum; used as Secretin-Ferring from Ferring Laboratories]
time at which the rate of the patient's progress appeared to decrease ([1]; after the first infusion): about 5 weeks | perfusion of the right posterior parietal and right temporal lobes (SPECT scan) ([1]; after the treatment): improved | results of second and third infusions ([1]; second infusion about 9 months after the first, third about three months after the second): achieved the same results | imitation of commands ([1]; within 3 weeks after infusion, before: did not imitate): Will imitate almost any multi-step command. | diet preferences ([1]; within 3 weeks after infusion, before: limited diet preferences): No Change | connections made between language and objects ([1]; within 3 weeks after infusion, before: no apparent connections): Many connections made between new language | interaction with videos ([1]; within 3 weeks after infusion, before: watch videos): Now, gets “involved” interactively with their videos. | chronic abnormal bowel movements ([1]; within days after the administration, no change in diet): became normal | overall improvements [2]: even more dramatic and significant improvements | abnormal opioid peptides (abnormal opioid peptides): the peptides disappeared
